What all share (format): cell-based
Test [1] deals with DDX3X. The test can be described thus: DDX3X protein expression by Western blot in GBM cells. The conditions noted are these: 24 h of treatment. As for the experimental part:
(§1) Cells were incubated for 15 min in lysis buffer containing 1% triton, 0.1% SDS, 2 mmol/L CaCl2, 10 mg/mL orthovanadate, and 1× protease inhibitors cocktail (Sigma-Aldrich, St. Louis, MO, USA). Forty micrograms of proteins were electrophoresed in 12% SDS-polyacrylamide gel, and then, the gel was placed onto a Trans-Blot Turbo mini nitrocellulose transfer pack and transferred using a Trans-Blot Turbo Transfer System (Bio-Rad Laboratories, Hercules, CA, USA). The membrane was incubated with […] primary antibody and then with […] horseradish peroxidase (HRP)-conjugated secondary antibodies (Santa Cruz Biotechnology, Dallas, TX, USA). […]
To better characterize the antiproliferative effect of BA103, we performed further biological evaluation using GBM cell lines. The expression of DDX3X was evaluated in U87 and U251 cell lines by Western blot analysis in comparison with HepG2 cells, resulting in basally detectable mainly in U87 cells (Figure 6A). […] Thus, also according to the importance of β-catenin signaling in GBM, we analyzed whether the expression of β-catenin in U87 and U251 cells could be associated with DDX3X activity. GBM cells were treated with BA103 for 48 h, and then, β-catenin expression was evaluated by Western blot analysis and immunofluorescence analysis (Figure 7A,B, respectively). […]
A general note: A western blot detects proteins with antibodies after separation by electrophoresis.

Test [2] has as its system β-catenin. The test can be described thus: β-catenin expression by Western blot and immunofluorescence. The conditions noted are these: U87 and U251 cells, 48 h. The method, then: as §1
Cells grown on coverslips (2 × 10^4 cells/cm^2) were fixed in 4% w/v paraformaldehyde in PBS for 10 min at RT and permeabilized in PBS containing 0.1% v/v Triton X-100 for 5 min at RT. […] After extensive washings, cells were mounted with ProLong Gold antifade mounting medium (Life Technologies Corporation, Carlsbad, CA, USA) and observed by a fluorescence microscope equipped with a digital camera (AXIOPHOT, Carl Zeiss, Oberkochen, Germany).
To better characterize the antiproliferative effect of BA103, we performed further biological evaluation using GBM cell lines. The expression of DDX3X was evaluated in U87 and U251 cell lines by Western blot analysis in comparison with HepG2 cells, resulting in basally detectable mainly in U87 cells (Figure 6A). […]

In test [3] the test system is panel of cancer cell lines (Du-145, PC3, HepG2, Huh-7, HN6, U87 and U231). The experiment in a line: Cytotoxicity screen on panel of cancer cell lines. The conditions noted are these: 72 h of treatment. As for the experimental part:
For CellTiter 96® Aqueous One Solution Cell Proliferation Assay (MTS) (Promega, Madison, WI, USA), cells were seeded at 5 × 10^3 per well in 96-well plates in quadruplicate together a control with no cells to evaluate the background. After 24 h, the culture medium was removed, and fresh medium containing increasing concentrations of chemical compounds was added to cells. The fixed final concentrations were 0.1 μM, 1 μM, 10 μM, and 100 μM. DMSO was the vehicle used for dilution of the compounds, and its final concentration on cells was less than 0.2%. Medium-only containing wells were included as controls. […] After 3 h at 37 °C in a humidified, 5% CO2 atmosphere, the absorbance at 492 nm was recorded using an EZREAD400 (Biochrom, Cambridge, United Kingdom) plate reader. The average 490 nm absorbance from the “no cell” control wells was subtracted from all other values to yield background-corrected absorbance. Dose–response curves and CC50 values have been calculated by plotting the absorbance data as a function of inhibitor concentrations and fitting the data by least-squares nonlinear regression, according to the method of Marquardt–Levenberg, with the computer program GraphPad Prism 6.0.
Cells were incubated with a scalar concentration of DDX3X inhibitors, and after 72 h of treatment, cell viability was assessed by cytotoxicity assay. […]

The results in this text go back to publication PMC8582824, “Targeting DDX3X Helicase Activity with BA103 Shows Promising Therapeutic Effects in Preclinical Glioblastoma Models” (Cancers, 2021).

Regarding `CCCCc1cn(-c2ccc(NC(=O)Nc3ccccc3C(F)(F)F)cc2)nn1` [BA103, 1-(4-(4-Butyl-1H-1,2,3-triazol-1-yl)phenyl)-3-(2-(trifluoromethyl)phenyl)urea], the “expression of DDX3X” value in test [1] is on record as “reduction in the expression of DDX3X”. In test [2], the “expression of β-catenin” value is “reduction in the expression of β-catenin”. Consider `CCCCc1nnc(-c2ccc(NC(=O)Nc3ccccc3C(F)(F)F)cc2)[nH]1` [Compound 4, 1-(4-(5-Butyl-4H-1,2,4-triazol-3-yl)phenyl)-3-(2-(trifluoromethyl)phenyl)urea], for which the “growth inhibition in all the cell lines tested” value in test [3] was “showed inhibition growth capability in all the cell lines tested”.
